For experiment [1], the target named is Mitogen-activated protein kinase 14 (Homo sapiens, UniProt Q16539). Nature of the experiment: Inhibitory activity against Mitogen-activated protein kinase 14, p38-alpha; No activity.
Experiment [2] deals with T1, Glucagon receptor (Homo sapiens, UniProt P47871). Kind of experiment: Antagonist activity against glucagon receptor. Format: functional.
Experiment [3] addresses T1, Glucagon receptor. Kind of experiment: Antagonist activity against glucagon receptor; […]. Format: functional.

T1 sequence (P47871 whole entry): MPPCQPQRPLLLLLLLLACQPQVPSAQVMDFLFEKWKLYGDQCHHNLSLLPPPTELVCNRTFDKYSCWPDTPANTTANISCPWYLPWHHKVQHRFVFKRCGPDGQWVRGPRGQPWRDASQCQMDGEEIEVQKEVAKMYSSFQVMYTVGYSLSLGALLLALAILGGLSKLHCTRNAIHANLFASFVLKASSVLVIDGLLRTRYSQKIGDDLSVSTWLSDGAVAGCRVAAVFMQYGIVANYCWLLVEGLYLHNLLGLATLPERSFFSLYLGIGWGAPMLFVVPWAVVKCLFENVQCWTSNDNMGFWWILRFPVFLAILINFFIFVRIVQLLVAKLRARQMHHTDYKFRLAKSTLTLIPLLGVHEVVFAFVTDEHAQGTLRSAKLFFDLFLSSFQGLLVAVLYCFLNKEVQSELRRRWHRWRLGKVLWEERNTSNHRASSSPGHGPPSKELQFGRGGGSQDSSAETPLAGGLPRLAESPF
Chain of Mitogen-activated protein kinase 14 (Q16539 whole entry): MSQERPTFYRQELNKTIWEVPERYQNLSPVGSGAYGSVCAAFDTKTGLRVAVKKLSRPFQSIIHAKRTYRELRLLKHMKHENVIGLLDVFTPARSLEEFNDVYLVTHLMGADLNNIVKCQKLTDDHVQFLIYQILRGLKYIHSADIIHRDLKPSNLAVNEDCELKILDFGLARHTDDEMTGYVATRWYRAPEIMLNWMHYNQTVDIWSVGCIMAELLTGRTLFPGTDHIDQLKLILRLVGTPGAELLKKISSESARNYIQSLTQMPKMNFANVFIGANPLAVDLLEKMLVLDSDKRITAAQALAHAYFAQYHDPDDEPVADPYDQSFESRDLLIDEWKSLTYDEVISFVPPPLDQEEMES

With `CC(C)c1cc(-c2ccc(Cl)cc2)[nH]c1-c1ccncc1`, the IC50 (usually the concentration needed to halve the response being measured) was “Not Active” in experiment [1] and 32 nM in experiment [2].

As for `O=C(O)c1ccc(-c2cc(-c3ccc(F)cc3)c(-c3ccncc3)[nH]2)cc1`, in experiment [3], the IC50 entry is recorded as “Not Active”.
